Assay results: patent publication US20260258035A1, “FIVE-MEMBERED AND SIX-MEMBERED NITROGEN-CONTAINING COMPOUND, AND INTERMEDIATE, PREPARATION METHOD AND USE THEREOF” (HANGZHOU SYNRX THERAPEUTICS BIOMEDICAL TECHNOLOGY CO., LTD., priority 2022, published 2026)

How the values were obtained:
[1] = test system: HCC1806; experiment: Cell viability assay (CellTiter-Glo); assay type: cell-based, Human; conditions: Homo sapiens, HCC1806, 168 h, HCC1806, 7 days, CellTiter-Glo; read-out: IC50 (nM) in cell viability assay
[2] = target: PARG (Homo sapiens, UniProt Q86W56); experiment: Biochemical assay (PARG, TFMU-ADPr substrate)
PARG, sequence (Q86W56 whole entry): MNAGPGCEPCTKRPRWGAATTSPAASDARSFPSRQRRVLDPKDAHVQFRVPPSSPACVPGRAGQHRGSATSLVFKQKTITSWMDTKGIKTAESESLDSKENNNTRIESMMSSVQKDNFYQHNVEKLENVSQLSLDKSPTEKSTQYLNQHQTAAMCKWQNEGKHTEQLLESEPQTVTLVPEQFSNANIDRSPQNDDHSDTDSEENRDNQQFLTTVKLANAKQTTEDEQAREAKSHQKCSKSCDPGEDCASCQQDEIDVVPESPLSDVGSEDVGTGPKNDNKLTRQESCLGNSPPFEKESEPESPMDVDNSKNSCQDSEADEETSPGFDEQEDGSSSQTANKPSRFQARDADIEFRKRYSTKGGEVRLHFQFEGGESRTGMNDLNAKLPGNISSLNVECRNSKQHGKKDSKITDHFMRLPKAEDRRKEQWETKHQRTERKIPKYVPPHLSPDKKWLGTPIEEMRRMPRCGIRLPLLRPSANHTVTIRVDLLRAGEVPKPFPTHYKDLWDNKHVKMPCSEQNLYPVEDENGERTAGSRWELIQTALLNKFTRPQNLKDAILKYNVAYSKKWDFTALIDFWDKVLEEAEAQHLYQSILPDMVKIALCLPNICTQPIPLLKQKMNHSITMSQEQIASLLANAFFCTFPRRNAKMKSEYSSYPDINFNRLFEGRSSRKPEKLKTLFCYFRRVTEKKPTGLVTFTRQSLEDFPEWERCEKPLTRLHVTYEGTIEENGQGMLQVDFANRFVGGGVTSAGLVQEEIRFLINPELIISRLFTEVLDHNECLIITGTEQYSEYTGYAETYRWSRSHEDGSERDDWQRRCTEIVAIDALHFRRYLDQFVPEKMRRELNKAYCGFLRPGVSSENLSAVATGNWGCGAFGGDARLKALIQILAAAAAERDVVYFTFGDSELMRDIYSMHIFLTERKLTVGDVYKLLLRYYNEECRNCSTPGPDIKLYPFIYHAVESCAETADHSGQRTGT

C[C@H]1CN(c2cc(S(=O)(=O)NC3(C)COC3)cn3c(-c4nnc(C(F)(F)F)s4)ncc23)C[C@H](C)O1 [Example 355, 8-((2S,6S)-2,6-dimethylmorpholino)-N-(3-methyloxetan-3-yl)-3-(5-(trifluoromethyl)-1,3,4-thiadiazol-2-yl)imidazo[1,5-a]pyridine-6-sulfonamide]
IC50 [1]: 85 nM | IC50 ([2]; PARG, TFMU-ADPr substrate): 0.5 nM

Cc1ncn(CC(=O)N2CCN(c3cc(S(=O)(=O)NC4(C)CC4)cn4c(-c5nnc(C(F)(F)F)s5)ncc34)CC2)n1 [Example 334, 8-(4-(2-(3-methyl-1H-1,2,4-triazol-1-yl)acetyl)piperazin-1-yl)-N-(1-methylcyclopropyl)-3-(5-(trifluoromethyl)-1,3,4-thiadiazol-2-yl)imidazo[1,5-a]pyridine-6-sulfonamide]
IC50 [1]: 354 nM | IC50 ([2]; PARG, TFMU-ADPr substrate): 6.31 nM

CN(C)C(=O)N1CCN(c2cc(S(=O)(=O)NC3(C)CC3)cn3c(-c4nnc(C(F)F)s4)ncc23)CC1 [Example 308, 4-(3-(5-(difluoromethyl)-1,3,4-thiadiazol-2-yl)-6-(N-(1-methylcyclopropyl)sulfamoyl)imidazo[1,5-a]pyridin-8-yl)-N,N-dimethylpiperazine-1-carboxamide]
IC50 [1]: 104 nM | IC50 ([2]; PARG, TFMU-ADPr substrate): 0.73 nM

COC(C)C(=O)N1CCN(c2cc(S(=O)(=O)NC3(C#N)CC3)cn3c(-c4nnc(C(F)(F)F)s4)ncc23)CC1 (stereo not drawn) [Example 260, N-(1-cyanocyclopropyl)-8-(4-(2-methoxypropanoyl)piperazin-1-yl)-3-(5-(trifluoromethyl)-1,3,4-thiadiazol-2-yl)imidazo[1,5-a]pyridine-6-sulfonamide]
IC50 [1]: 250 nM | IC50 ([2]; PARG, TFMU-ADPr substrate): 28.8 nM

COC1(C(=O)N2CCN(c3cc(S(=O)(=O)NC4(C)CC4)cn4c(-c5nnc(C(F)(F)F)s5)nc(C#N)c34)CC2)CC1 [Example 199, 1-cyano-8-(4-(1-methoxycyclopropane-1-carbonyl)piperazin-1-yl)-N-(1-methylcyclopropyl)-3-(5-(trifluoromethyl)-1,3,4-thiadiazol-2-yl)imidazo[1,5-a]pyridine-6-sulfonamide]
IC50 [1]: 11.5 nM | IC50 ([2]; PARG, TFMU-ADPr substrate): 0.34 nM

COCC1CN(c2cc(S(=O)(=O)NC3(CF)COC3)cn3c(-c4nnc(C(F)F)s4)nc(Cl)c23)CCN1 (stereo not drawn) [Example 136, 1-chloro-3-(5-(difluoromethyl)-1,3,4-thiadiazol-2-yl)-N-(3-(fluoromethyl)oxetan-3-yl)-8-(3-(methoxymethyl)piperazin-1-yl)imidazo[1,5-a]pyridine-6-sulfonamide]
IC50 [1]: 199 nM | IC50 ([2]; PARG, TFMU-ADPr substrate): 7.94 nM

CO[C@H]1C[C@H](C(=O)N2CCN(c3cc(S(=O)(=O)NC4(C)CC4)cn4c(-c5nnc(C(F)(F)F)s5)ncc34)CC2)C1 [Example 290, 8-(4-((1r,3r)-3-methoxycyclobutane-1-carbonyl)piperazin-1-yl)-N-(1-methylcyclopropyl)-3-(5-(trifluoromethyl)-1,3,4-thiadiazol-2-yl)imidazo[1,5-a]pyridine-6-sulfonamide]
IC50 [1]: 151 nM | IC50 ([2]; PARG, TFMU-ADPr substrate): 14.5 nM

COCC1CN(c2cc(S(=O)(=O)NC3(C)COC3)cn3c(-c4nnc(C(F)F)s4)nc(Cl)c23)CCN1 (stereo not drawn) [Example 127, 1-chloro-3-(5-(difluoromethyl)-1,3,4-thiadiazol-2-yl)-8-(3-(methoxymethyl)piperazin-1-yl)-N-(3-methyloxetan-3-yl)imidazo[1,5-a]pyridine-6-sulfonamide]
IC50 [1]: 95 nM | IC50 ([2]; PARG, TFMU-ADPr substrate): 1.01 nM

COCC1CN(c2cc(S(=O)(=O)NC3(C)COC3)cn3c(-c4nnc(C(F)(F)F)s4)nc(Cl)c23)CCN1 (stereo not drawn) [Example 135, 1-chloro-8-(3-(methoxymethyl)piperazin-1-yl)-N-(3-methyloxetan-3-yl)-3-(5-(trifluoromethyl)-1,3,4-thiadiazol-2-yl)imidazo[1,5-a]pyridine-6-sulfonamide]
IC50 [1]: 213 nM | IC50 ([2]; PARG, TFMU-ADPr substrate): 12.6 nM

COCC1(O)CCN(c2cc(S(=O)(=O)NC3(C)CC3)cn3c(-c4nnc(C(F)F)s4)ncc23)CC1 [Example 346, 3-(5-(difluoromethyl)-1,3,4-thiadiazol-2-yl)-8-(4-hydroxy-4-(methoxymethyl)piperidin-1-yl)-N-(1-methylcyclopropyl)imidazo[1,5-a]pyridine-6-sulfonamide]
IC50 [1]: 109 nM | IC50 ([2]; PARG, TFMU-ADPr substrate): 1.53 nM

N#CC1(NS(=O)(=O)c2cc(N3CCN(C(=O)[C@H]4CCCO4)CC3)c3cnc(-c4nnc(C(F)(F)F)s4)n3c2)CC1 [Example 303, (R)-N-(1-cyanocyclopropyl)-8-(4-(tetrahydrofuran-2-carbonyl)piperazin-1-yl)-3-(5-(trifluoromethyl)-1,3,4-thiadiazol-2-yl)imidazo[1,5-a]pyridine-6-sulfonamide]
IC50 [1]: 435 nM | IC50 ([2]; PARG, TFMU-ADPr substrate): 20.9 nM

CC(C)C(=O)N1CCN(c2cc(S(=O)(=O)NC3(C)CN(C)C3)cn3c(-c4nnc(C(F)F)s4)ncc23)CC1 [Example 51, 3-(5-(difluoromethyl)-1,3,4-thiadiazol-2-yl)-N-(1,3-dimethylazetidin-3-yl)-8-(4-isobutyrylpiperazin-1-yl)imidazo[1,5-a]pyridine-6-sulfonamide]
IC50 [1]: > 30000 nM | IC50 ([2]; 4 nM PARG, 66.2 uM TFMU-ADPr, 3 min at room temperature): > 1000 nM

C[C@H]1CN(c2cc(S(=O)(=O)NC3(C)COC3)cn3c(-c4nnc(C(F)(F)F)s4)cnc23)C[C@H](C)N1 [Example 189, 8-((3S,5S)-3,5-dimethylpiperazin-1-yl)-N-(3-methyloxetan-3-yl)-3-(5-(trifluoromethyl)-1,3,4-thiadiazol-2-yl)imidazo[1,2-a]pyridine-6-sulfonamide]
IC50 [1]: 112 nM | IC50 ([2]; PARG, TFMU-ADPr substrate): 3.55 nM

N#CC1(NS(=O)(=O)c2cc(N3CCN(C(=O)C4C5COCC54)CC3)c3cnc(-c4nnc(C(F)(F)F)s4)n3c2)CC1 (stereo not drawn) [Example 297, 8-(4-(3-oxabicyclo[3.1.0]hexane-6-carbonyl)piperazin-1-yl)-N-(1-cyanocyclopropyl)-3-(5-(trifluoromethyl)-1,3,4-thiadiazol-2-yl)imidazo[1,5-a]pyridine-6-sulfonamide]
IC50 [1]: 362 nM | IC50 ([2]; PARG, TFMU-ADPr substrate): 55 nM

CC(C)C(=O)N1CCN(c2cc(S(=O)(=O)NC3(C)CC3)cn3c(-c4nnc(C(F)(F)F)s4)nnc23)CC1 [Example 388, 8-(4-isobutyrylpiperazin-1-yl)-N-(1-methylcyclopropyl)-3-(5-(trifluoromethyl)-1,3,4-thiadiazol-2-yl)-[1,2,4]triazolo[4,3-a]pyridine-6-sulfonamide]
IC50 [1]: 320 nM | IC50 ([2]; PARG, TFMU-ADPr substrate): 10 nM

COC1(C(=O)N2CCN(c3cc(S(=O)(=O)NC4(C)CC4)cn4c(-c5nnc(C(F)F)s5)ncc34)CC2)CN(C)C1 [Example 310, 3-(5-(difluoromethyl)-1,3,4-thiadiazol-2-yl)-8-(4-(3-methoxy-1-methylazetidine-3-carbonyl)piperazin-1-yl)-N-(1-methylcyclopropyl)imidazo[1,5-a]pyridine-6-sulfonamide]
IC50 [1]: 38 nM | IC50 ([2]; PARG, TFMU-ADPr substrate): < 0.1 nM

C[C@H]1CN(c2cc(S(=O)(=O)NC3(C)COC3)cn3c(-c4nnc(C(F)F)s4)cnc23)C[C@H](C)N1 [Example 182, 3-(5-(difluoromethyl)-1,3,4-thiadiazol-2-yl)-8-((3S,5S)-3,5-dimethylpiperazin-1-yl)-N-(3-methyloxetan-3-yl)imidazo[1,2-a]pyridine-6-sulfonamide]
IC50 [1]: 128 nM | IC50 ([2]; PARG, TFMU-ADPr substrate): 0.53 nM

CC1(NS(=O)(=O)c2cc(N3CCN4C(=O)COCC4C3)c3cnc(-c4nnc(C(F)(F)F)s4)n3c2)COC1 (stereo not drawn) [Example 363, N-(3-methyloxetan-3-yl)-8-(4-oxohexahydropyrazino[2,1-c][1,4]oxazin-8(1H)-yl)-3-(5-(trifluoromethyl)-1,3,4-thiadiazol-2-yl)imidazo[1,5-a]pyridine-6-sulfonamide]
IC50 [1]: 63 nM | IC50 ([2]; PARG, TFMU-ADPr substrate): 1.71 nM

CN(C)CCN(C)C(=O)N1CCN(c2cc(S(=O)(=O)NC3(C)COC3)cn3c(-c4nnc(C(F)F)s4)ncc23)CC1 [Example 187, 4-(3-(5-(difluoromethyl)-1,3,4-thiadiazol-2-yl)-6-(N-(3-methyloxetan-3-yl)sulfamoyl)imidazo[1,5-a]pyridin-8-yl)-N-(2-(dimethylamino)ethyl)-N-methylpiperazine-1-carboxamide]
IC50 [1]: 874 nM | IC50 ([2]; PARG, TFMU-ADPr substrate): 3.37 nM

N#CC1(NS(=O)(=O)c2cc(N3CCN(C(=O)C4CC(O)C4)CC3)c3cnc(-c4nnc(C(F)(F)F)s4)n3c2)CC1 (stereo not drawn) [Example 283, N-(1-cyanocyclopropyl)-8-(4-(3-hydroxycyclobutane-1-carbonyl)piperazin-1-yl)-3-(5-(trifluoromethyl)-1,3,4-thiadiazol-2-yl)imidazo[1,5-a]pyridine-6-sulfonamide]
IC50 [1]: 539 nM | IC50 ([2]; PARG, TFMU-ADPr substrate): 3.8 nM

COC1(CN2CCN(c3cc(S(=O)(=O)NC4(C)CC4)cn4c(-c5nnc(C(F)F)s5)ncc34)CC2)CC1 [Example 350, 3-(5-(difluoromethyl)-1,3,4-thiadiazol-2-yl)-8-(4-((1-methoxycyclopropyl)methyl)piperazin-1-yl)-N-(1-methylcyclopropyl)imidazo[1,5-a]pyridine-6-sulfonamide]
IC50 [1]: 713 nM | IC50 ([2]; PARG, TFMU-ADPr substrate): 20 nM

CN1CC[C@@H]1C(=O)N1CCN(c2c(F)c(S(=O)(=O)NC3(C)CC3)cn3c(-c4nnc(C(F)(F)F)s4)ncc23)CC1 [Example 332, (R)-7-fluoro-8-(4-(1-methylazetidine-2-carbonyl)piperazin-1-yl)-N-(1-methylcyclopropyl)-3-(5-(trifluoromethyl)-1,3,4-thiadiazol-2-yl)imidazo[1,5-a]pyridine-6-sulfonamide]
IC50 [1]: 745 nM | IC50 ([2]; PARG, TFMU-ADPr substrate): 10.8 nM

CN1CCC[C@@H]1C(=O)N1CCN(c2cc(S(=O)(=O)NC3(C)CC3)cn3c(-c4nnc(C(F)(F)F)s4)ncc23)CC1 [Example 325, 8-(4-(methyl-D-prolyl)piperazin-1-yl)-N-(1-methylcyclopropyl)-3-(5-(trifluoromethyl)-1,3,4-thiadiazol-2-yl)imidazo[1,5-a]pyridine-6-sulfonamide]
IC50 [1]: 120 nM | IC50 ([2]; PARG, TFMU-ADPr substrate): 4.46 nM

C[C@H]1CN(c2cc(S(=O)(=O)NC3(C)COC3)cn3c(-c4nnc(C(F)F)s4)ncc23)C[C@H](C)O1 [Example 354, 3-(5-(difluoromethyl)-1,3,4-thiadiazol-2-yl)-8-((2S,6S)-2,6-dimethylmorpholino)-N-(3-methyloxetan-3-yl)imidazo[1,5-a]pyridine-6-sulfonamide]
IC50 [1]: 65.8 nM | IC50 ([2]; PARG, TFMU-ADPr substrate): 0.27 nM
